Legend:
Ba/F3 ROS1-G2032R = experiment: Antiproliferation assay; format: cell-based, mouse; details: Mus musculus, BaF3; Ba/F3 cells, cell growth inhibition, 72 h
[1] = test system: Ba/F3 ROS1 (SLC34A2) F2075C-G1837E; experiment: Antiproliferation assay; format: cell-based; details: Mus musculus, BaF3; Ba/F3 cell line
Protocol: (§1) Ba/F3 immortalized murine bone marrow–derived pro-B cells were obtained from Creative Biogene (Shirley, NY) and cultured in RPMI supplemented with 10% FBS and IL3 (0.5 ng/mL). Ba/F3 cells expressing ROS1 variants were maintained in RPMI supplemented with 10% FBS and puromycin (0.7 mg/mL). Crizotinib, ceritinib, brigatinib, repotrectinib, and lorlatinib were purchased from MedChem Express. Each compound was dissolved in DMSO and serially diluted in RPMI for cell culture experiments.
(§2) To assess the 72 h effect of drug treatment on cell proliferation, 2000 to 3000 cells were plated in replicates of three in 96-well plates. The plates were placed in an incubator at 37 °C, 5% CO2 for 72 h. Following drug treatments, the cells were incubated with the Alamar Blue Assay reagent (BioRad), 5 μL each well for 4 h at 37 °C and 5% CO2. Luminescence was measured on a multiplate reader and analyzed. […] IC50 values were determined using a nonlinear regression model with a sigmoidal dose response in GraphPad. The data were collected based on triplicate experiments, and presented as mean ± SD.

[2] = test system: Ba/F3 ROS1 (SLC34A2) G2032R-D2113G; experiment: Antiproliferation assay; format: cell-based; details: Mus musculus, BaF3; Ba/F3 cell line
Protocol: as §1, §2

[3] = test system: Ba/F3 ROS1 (SLC34A2) G2032R-F2075C; experiment: Antiproliferation assay; format: cell-based; details: Mus musculus, BaF3; Ba/F3 cell line
Protocol: as §1, §2

Ba/F3 ROS1 L2086F = experiment: Antiproliferation assay; format: cell-based; details: Mus musculus, BaF3; Ba/F3 cells, cell growth inhibition
Excerpt: To assess targeted degradation of ROS1 fusion proteins, we first established a mouse pro-B cell line Ba/F3 as a model expressing the CD74-ROS1 oncogene or CD74-ROS1 with clinically observed secondary/tertiary mutations. The Ba/F3 cell line is dependent on interleukin-3 for survival and proliferation. Upon transduction of oncogenic ROS1, Ba/F3 cells become independent of interleukin-3 but dependent on the transduced driver gene. The Ba/F3 models have been effectively employed in the discovery and preclinical development of next generation ROS1 inhibitors.[11],[14],[15] We have tested ROS1 inhibitors against these Ba/F3 cells to validate their sensitivity and resistance to ROS1 inhibition.
as §1, §2
(§3) cDNA encoding CD74-ROS1 or mutant CD74–ROS1 was cloned into retroviral expression vectors (pLenti), and viruses were generated in HEK293T cells by transfecting with packaging plasmids. The resulting virus was used to infect Ba/F3 cells. After retroviral infection, Ba/F3 cells were selected by incubation with puromycin (0.7 mg/mL) for 2 weeks. For Ba/F3 cells infected by the CD74–ROS1 variants, IL3 was withdrawn from the culture medium at least 2 weeks before the experiments.

[4] = test system: Ba/F3 ROS1 (SLC34A2) G2032R-F2075 V; experiment: Antiproliferation assay; format: cell-based; details: Mus musculus, BaF3; Ba/F3 cell line
Protocol: as §1, with “Crizotinib, ceritinib, brigatinib, repotrectinib, and lorlatinib were purchased from MedChem Express.” left out
as §2

[5] = test system: Ba/F3 ROS1 (SLC34A2) L2026M; experiment: Antiproliferation assay; format: cell-based; details: Mus musculus, BaF3; Ba/F3 cell line
Protocol: as §1, with “Crizotinib, ceritinib, brigatinib, repotrectinib, and lorlatinib were purchased from MedChem Express.” left out
as §2

[6] = test system: Ba/F3 ROS1 (SLC34A2) D2033N; experiment: Antiproliferation assay; format: cell-based; details: Mus musculus, BaF3; Ba/F3 cell line
Protocol: as §1, with “Crizotinib, ceritinib, brigatinib, repotrectinib, and lorlatinib were purchased from MedChem Express.” left out
as §2

[7] = test system: Ba/F3 ROS1 (SLC34A2) G2032R; experiment: Antiproliferation assay; format: cell-based; details: Mus musculus, BaF3; Ba/F3 cell line
Protocol: as §1, with “Crizotinib, ceritinib, brigatinib, repotrectinib, and lorlatinib were purchased from MedChem Express.” left out
as §2

Ba/F3 ROS1 G2032R-F2075V = experiment: Antiproliferation assay; format: cell-based; details: Mus musculus, BaF3; Ba/F3 cells, cell growth inhibition
Excerpt: (§4) To assess targeted degradation of ROS1 fusion proteins, we first established a mouse pro-B cell line Ba/F3 as a model expressing the CD74-ROS1 oncogene or CD74-ROS1 with clinically observed secondary/tertiary mutations. The Ba/F3 cell line is dependent on interleukin-3 for survival and proliferation. Upon transduction of oncogenic ROS1, Ba/F3 cells become independent of interleukin-3 but dependent on the transduced driver gene.
as §1, with “Crizotinib, ceritinib, brigatinib, repotrectinib, and lorlatinib were purchased from MedChem Express.” left out
as §2
(§5) The resulting virus was used to infect Ba/F3 cells. After retroviral infection, Ba/F3 cells were selected by incubation with puromycin (0.7 mg/mL) for 2 weeks. For Ba/F3 cells infected by the CD74–ROS1 variants, IL3 was withdrawn from the culture medium at least 2 weeks before the experiments.

Ba/F3 ROS1 D2033N = experiment: Antiproliferation assay; format: cell-based; details: Mus musculus, BaF3; Ba/F3 cells, cell growth inhibition
Excerpt: as §4
as §1, with “Crizotinib, ceritinib, brigatinib, repotrectinib, and lorlatinib were purchased from MedChem Express.” left out
as §2, §5

Ba/F3 ROS1 L2026M = experiment: Antiproliferation assay; format: cell-based; details: Mus musculus, BaF3; Ba/F3 cells, cell growth inhibition
Excerpt: as §4
as §1, with “Crizotinib, ceritinib, brigatinib, repotrectinib, and lorlatinib were purchased from MedChem Express.” left out
as §2, §5

Ba/F3 ROS1 (CD74) G2032R = experiment: Antiproliferation assay; format: cell-based; details: Mus musculus, BaF3; Ba/F3 cell line
Protocol: as §1, §2, §3

[8] = test system: Ba/F3 ROS1 (CD74) S1986F-G2032R-L2086F; experiment: Antiproliferation assay; format: cell-based; details: Mus musculus, BaF3; Ba/F3 cell line
Protocol: as §1, §2, §3

[9] = test system: Ba/F3 ROS1 (CD74) G2032R-L2086F; experiment: Antiproliferation assay; format: cell-based; details: Mus musculus, BaF3; Ba/F3 cell line
Protocol: as §1, §2, §3

[10] = test system: Ba/F3 ROS1 (CD74) S1986F-G2032R; experiment: Antiproliferation assay; format: cell-based; details: Mus musculus, BaF3; Ba/F3 cell line
Protocol: as §1, §2, §3

Ba/F3 ROS1 (CD74) L2086F = experiment: Antiproliferation assay; format: cell-based; details: Mus musculus, BaF3; Ba/F3 cell line
Protocol: as §1, §2, §3

[11] = test system: Ba/F3 ROS1 (CD74) S1986F-L2086F; experiment: Antiproliferation assay; format: cell-based; details: Mus musculus, BaF3; Ba/F3 cell line
Protocol: as §1, §2, §3

[12] = test system: Ba/F3 CD74-ROS1 non mutant; experiment: Antiproliferation assay (Alamar Blue, 72 h); format: cell-based, mouse; details: Mus musculus, BaF3, 72 h, Ba/F3 cells, cell growth inhibition
[13] = test system: Ba/F3 cell lines engineered to express the oncogenic ROS1 rearrangement; details: cited from earlier work
[14] = test system: Ba/F3 SLC34A2-ROS1 G2032R xenograft tumors; experiment: Mouse efficacy study, Ba/F3 SLC34A2-ROS1 G2032R xenograft; format: in vivo; details: NOD/SCID mice, 30 mg/kg PO qd
Protocol: (§6) All the procedures related to animal handling, care, and treatment in this study were performed according to guidelines approved by the Institutional Animal Care and Use Committee (IACUC) of Xavier University of Louisiana following the guidance of the AAALAC. Ba/F3-ROS1 and Ba/F3-ROS1-G2032R cells were maintained in RPMI 1640 medium supplemented with 10% fetal bovine serum. The cells growing in an exponential growth phase were harvested and counted for tumor inoculation. Female NOD/SCID mice 6–8 weeks of age were allowed to adapt to laboratory conditions for 10 days prior to dosing and were allowed food and water ad libitum. Each mouse was inoculated subcutaneously in the right flank with Ba/F3 CD74-ROS1 or Ba/F3 SL34A2-ROS1 G2032R cells (1 × 10^6) in 0.2 mL of PBS mixed with Matrigel (50:50) for tumor development.

[15] = set-up: method as in PMID 30980071; details: patients; cited from earlier work
[16] = test system: Ba/F3 CD74-ROS1 WT xenograft tumors; experiment: Mouse efficacy study, Ba/F3 CD74-ROS1 xenograft; format: in vivo; details: NOD/SCID mice, 30 mg/kg PO qd
Protocol: as §6

[17] = test system: Ba/F3 ROS1 (SLC34A2) V2098I; experiment: Antiproliferation assay; format: cell-based; details: Mus musculus, BaF3; Ba/F3 cell line
Protocol: as §1, with “Crizotinib, ceritinib, brigatinib, repotrectinib, and lorlatinib were purchased from MedChem Express.” left out
as §2

Compound	IC50 (Ba/F3 ROS1-G2032R) [nM]	IC50 [1] [nM]	IC50 [2] [nM]	IC50 [3] [nM]	IC50 (Ba/F3 ROS1 L2086F) [nM]	IC50 [4] [nM]	IC50 [5] [nM]	IC50 [6] [nM]	IC50 [7] [nM]	IC50 (Ba/F3 ROS1 G2032R-F2075V) [nM]	IC50 (Ba/F3 ROS1 D2033N) [nM]	IC50 (Ba/F3 ROS1 L2026M) [nM]	IC50 (Ba/F3 ROS1 (CD74) G2032R) [nM]	IC50 [8] [nM]	IC50 [9] [nM]	IC50 [10] [nM]	IC50 (Ba/F3 ROS1 (CD74) L2086F) [nM]	IC50 [11] [nM]	other results
COc1cc(N2CCC(N3CCN(C)CC3)CC2)ccc1Nc1ncc(Cl)c(Nc2ccccc2P(C)(C)=O)n1 [brigatinib]	265 ± 73	8.1 ± 2.2	215 ± 50.3	869 ± 148	172 ± 24	327 ± 44.8	47.8 ± 10.2	114 ± 25.3	490 ± 38.4	327 ± 43	114 ± 17	48 ± 4	513 ± 118	> 2000	694 ± 204	488 ± 96.8	172 ± 47.6	329 ± 85.5	–
Cc1cc(Nc2ncc(Cl)c(Nc3ccccc3S(=O)(=O)C(C)C)n2)c(OC(C)C)cc1C1CCNCC1 [ceritinib]	821 ± 148	–	–	–	215 ± 33	–	–	–	–	> 2000	135 ± 27	43 ± 5	–	–	–	–	–	–	IC50 [12]: 14.5 ± 2.2 nM; IC50 [13]: 180 nM
C[C@@H](Oc1cc(-c2cnn(C3CCNCC3)c2)cnc1N)c1c(Cl)ccc(F)c1Cl [crizotinib]	> 2000	–	–	–	745 ± 88	–	–	–	–	> 2000	187 ± 39	–	–	–	–	–	–	–	TGI (tumor growth inhibition) [14]: 7%; objective response rate [15]: 72%; progression-free survival [15]: 19.2 months; TGI (tumor growth inhibition) [16]: 35%
C[C@H]1Oc2cc(cnc2N)-c2c(nn(C)c2C#N)CN(C)C(=O)c2ccc(F)cc21 [lorlatinib]	338 ± 55	0.1 ± 0.1	142 ± 25.1	> 2000	> 2000	341 ± 75.5	1.1 ± 0.2	7.6 ± 0.5	244 ± 35.3	233 ± 31	7.6 ± 1.3	1 ± 0.4	385 ± 76	> 2000	> 2000	503 ± 77.4	> 2000	> 2000	IC50 [17]: 1.5 ± 0.4 nM
